Experiments:
[1] = target: T1, hen egg white lysozyme (HEWL); hen egg lysozyme (Sigma) (Gallus gallus, UniProt P00698); test: fluorescence polarization, egg white; assay type: biochemical; settings: 25 mM phosphate, 0.15 M NaCl, pH 7.4, 25 °C; tracer 3 nM; diluted egg white; labelled compound
T1 construct: gene LYZ; native mature enzyme, 129 residues, commercial (Sigma) for tracer 2; endogenous in diluted egg white for tracer 1

[2] = target: T1, hen egg white lysozyme (HEWL); hen egg lysozyme (Sigma); test: fluorescence polarization; assay type: biochemical; settings: 25 mM phosphate, 0.15 M NaCl, pH 7.4, 25 °C; tracer 3 nM, HEWL 100 µg/mL, added after pre-incubation with non-reactive egg whites; labelled compound

T1 sequence (P00698 19-147): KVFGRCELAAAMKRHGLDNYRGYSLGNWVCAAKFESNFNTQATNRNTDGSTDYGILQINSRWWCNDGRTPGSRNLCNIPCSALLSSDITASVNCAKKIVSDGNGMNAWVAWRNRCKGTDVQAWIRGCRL

Structure (SMILES)	fluorescence polarization, egg white [1]	fluorescence polarization [2]
CC(=O)N[C@H]1[C@H](OCCNC(=S)Nc2ccc3c(c2)C(=O)OC32c3ccc(O)cc3Oc3cc(O)ccc32)O[C@H](CO)[C@@H](O[C@@H]2O[C@H](CO)[C@@H](O[C@@H]3O[C@H](CO)[C@@H](O)[C@H](O)[C@H]3NC(C)=O)[C@H](O)[C@H]2NC(C)=O)[C@@H]1O [compound 1, tracer 1]	a rapid increase in the FP signal was observed, followed by a stable plateau (Figure 6b)	
CC(=O)N[C@H]1[C@H](OCCNC(=S)Nc2ccc3c(c2)C(=O)OC32c3ccc(O)cc3Oc3cc(O)ccc32)O[C@H](CO)[C@@H](O[C@@H]2O[C@H](CO)[C@@H](O[C@@H]3O[C@H](CO)[C@@H](O[C@@H]4O[C@H](CO)[C@@H](O[C@@H]5O[C@H](CO)[C@@H](O)[C@H](O)[C@H]5NC(C)=O)[C@H](O)[C@H]4NC(C)=O)[C@H](O)[C@H]3NC(C)=O)[C@H](O)[C@H]2NC(C)=O)[C@@H]1O [compound 2, tracer 2]		A sharp increase in the FP signal followed by a decrease over time was observed

Reference: publication PMC12027278, “Study of Lysozyme Activity in Bird Egg Whites by Fluorescence Polarization Assay Using Chitooligosaccharide Tracer” (Foods, 2025)
